Data taken from publication PMC8518806 (2021).

Key:
[1] = test system: BeCA (RNA8-2) (RNA, aptamer) GGAGGUACGUGGACUGCUUAUGCAGUAGGAAGGCCUCC; test: fluorescence turn-on titration (NIR); settings: 125 mM KCl, 5 mM MgCl2; 20 mM Hepes pH 7.4; 100 nM BC6
[2] = test system: M11 (RNA, aptamer) GGAGGUACGUGGGCUGCUUAUGCAGCAGGAAGGCCUCC; test: fluorescence turn-on titration; settings: 125 mM KCl, 5 mM MgCl2; 20 mM Hepes pH 7.4; 100 nM BC1-DN
[3] = test system: M9 (RNA, aptamer) GGAGGUAGUGGACUGCUUAUGCAGUAGGAAGGCCUCC; test: fluorescence turn-on titration; settings: 125 mM KCl, 5 mM MgCl2; 20 mM Hepes pH 7.4; 100 nM BC1-DN
[4] = test system: M4 (RNA, aptamer) GGAGGUACGUGGACUGCUUAUGCAGUAGGAAGCCCUCC; test: fluorescence turn-on titration; settings: 125 mM KCl, 5 mM MgCl2; 20 mM Hepes pH 7.4; 100 nM BC1-DN
[5] = test system: M6 (RNA, aptamer) GGAAAUACGUGGACUGCUUAUGCAGUAGGAAGGUUUCC; test: fluorescence turn-on titration; settings: 125 mM KCl, 5 mM MgCl2; 20 mM Hepes pH 7.4; 100 nM BC1-DN
[6] = test system: RNA8-1 (RNA, aptamer) GGAGGCAGGGCUUAGUUGAGGUACGUGGACUGCUUAUGCAGUAGGAAGGCCUCACUUUUCCGCCGUUGGCACCAC; test: fluorescence turn-on titration; settings: 125 mM KCl, 5 mM MgCl2; 20 mM Hepes pH 7.4; 100 nM BC1-DN
[7] = test system: M12 (RNA, aptamer) GGAGGUACGUGGACUGCUUCGGCAGUAGGAAGGCCUCC; test: fluorescence turn-on titration; settings: 125 mM KCl, 5 mM MgCl2; 20 mM Hepes pH 7.4; 100 nM BC1-DN
[8] = test system: M5 (RNA, aptamer) GGAGGUACGUGGACUGCUUAUGCAGUAGGAAGUCCUCC; test: fluorescence turn-on titration; settings: 125 mM KCl, 5 mM MgCl2; 20 mM Hepes pH 7.4; 100 nM BC1-DN
[9] = test system: M7 (RNA, aptamer) GGAGUACGUGGACUGCUUAUGCAGUAGGAAGGCUCC; test: fluorescence turn-on titration; settings: 125 mM KCl, 5 mM MgCl2; 20 mM Hepes pH 7.4; 100 nM BC1-DN
[10] = test system: M10 (RNA, aptamer) GGAGGUACGUGGACUGCUUAUGCAGUAGGAAGCCUCC; test: fluorescence turn-on titration; settings: 125 mM KCl, 5 mM MgCl2; 20 mM Hepes pH 7.4; 100 nM BC1-DN
[11] = test system: M8 (RNA, aptamer) GGAGGUCGUGGACUGCUUAUGCAGUAGGAAGGCCUCC; test: fluorescence turn-on titration; settings: 125 mM KCl, 5 mM MgCl2; 20 mM Hepes pH 7.4; 100 nM BC1-DN
[12] = test system: RNA8-3 (RNA, aptamer) GGAGGUACGUGGAUAGGAAGGCCUCC; test: fluorescence turn-on titration; settings: 125 mM KCl, 5 mM MgCl2; 20 mM Hepes pH 7.4; 100 nM BC1-DN
[13] = test system: BeCA (RNA8-2) (RNA, aptamer) GGAGGUACGUGGACUGCUUAUGCAGUAGGAAGGCCUCC; test: fluorescence turn-on titration; settings: 125 mM KCl, 5 mM MgCl2; 20 mM Hepes pH 7.4; 100 nM BC1-DN
[14] = test system: M2 (RNA, aptamer) GGAGGGACGUGGACUGCUUAUGCAGUAGGAAGCCCUCC; test: fluorescence turn-on titration; settings: 125 mM KCl, 5 mM MgCl2; 20 mM Hepes pH 7.4; 100 nM BC1-DN
[15] = test system: M3 (RNA, aptamer) GGAGGUACGUGGACUGCUUAUGCAGUAGGAAGACCUCC; test: fluorescence turn-on titration; settings: 125 mM KCl, 5 mM MgCl2; 20 mM Hepes pH 7.4; 100 nM BC1-DN
[16] = test system: M1 (RNA, aptamer) GGAGGCACGUGGACUGCUUAUGCAGUAGGAAGGCCUCC; test: fluorescence turn-on titration; settings: 125 mM KCl, 5 mM MgCl2; 20 mM Hepes pH 7.4; 100 nM BC1-DN

| SMILES | KD [1] [nM] | KD [2] [nM] | KD [3] [nM] | KD [4] [nM] | KD [5] [nM] | KD [6] [nM] | KD [7] [nM] | KD [8] [nM] | KD [9] [nM] | KD [10] [nM] | KD [11] [nM] | KD [12] [nM] | KD [13] [nM] | KD [14] [nM] | KD [15] [nM] | KD [16] [nM] |
| --- | --- | --- | --- | --- | --- | --- | --- | --- | --- | --- | --- | --- | --- | --- | --- | --- |
| CN(C)c1ccc2c(c1)OC(c1cc3ccc(N(C)C)cc3oc1=O)=CC21c2ccccc2C(=O)N1C#N (stereo not shown) | 220 |  |  |  |  |  |  |  |  |  |  |  |  |  |  |  |
| CN(C)c1ccc2cc(-c3cc(-c4ccc(C(=O)NCCOCCOCCNc5ccc([N+](=O)[O-])cc5[N+](=O)[O-])cc4C(=O)[O-])c4ccc(N(C)C)cc4[o+]3)c(=O)oc2c1 |  | 270 ± 80 | 250 ± 60 | 4600 ± 1400 | 350 ± 50 | 900 ± 200 | 330 ± 120 | 1300 ± 270 | 200 ± 30 | 770 ± 180 | 1100 ± 440 | > 10000 | 230 | 1700 ± 480 | 620 ± 190 | 1100 ± 470 |
